Reference: US4666915A, “2-anilino-1,6-dihydro-6-oxo-5-pyrimidine-carboxylic acid derivatives, process for the preparation thereof, and antiallergic agent containing the same” (Morishita Pharmaceutical Co. Ltd., priority 1984, dated 1987)

Test system: not listed separately
Assay: Toxicity test in mice (LD50, Litchfield-Wilcoxon method)
Settings: mouse, in vivo, ip; mortality during 7 days; ddY male mice; read-out: 50% lethal dose (LD50)
Experimental: The test compound was suspended in 0.5% carboxymethylcellulose solution, and the suspension was intraperitoneally administered to ddY male mice (weighing 20-25 g, one group: 10 mice). Based on the total mortality during 7 days after the administration of the test compound, the 50% lethal dose (LD50) was calculated by Litchfield-Wilcoxon method. The data of reference (Tranilast) are also shown therein.

Row | SMILES | LD50 at 168 h [mg/kg]
1 | CC(C)COc1ccccc1Nc1ncc(C(=O)O)c(=O)[nH]1 [Example 52, 1,6-dihydro-2-[2-(2-methylpropoxy)anilino]-6-oxo-5-pyrimidinecarboxylic acid] | 780
2 | COc1ccc(/C=C/C(=O)Nc2ccccc2C(=O)O)cc1OC [Tranilast, reference compound] | 430
3 | CCCOc1ccccc1Nc1ncc(C(=O)O)c(=O)[nH]1 [Example 49, 1,6-dihydro-2-(2-propoxyanilino)-6-oxo-5-pyrimidinecarboxylic acid] | 1160
4 | CCOc1ccccc1Nc1ncc(C(=O)O)c(=O)[nH]1 [Example 48, 1,6-dihydro-2-(2-ethoxyanilino)-6-oxo-5-pyrimidinecarboxylic acid] | > 500
5 | CCCCOc1ccccc1Nc1ncc(C(=O)O)c(=O)[nH]1 [Example 51, 1,6-dihydro-2-(2-butoxyanilino)-6-oxo-5-pyrimidinecarboxylic acid] | 1230

Test system: passive cutaneous anaphylaxis (PCA)
Assay: PCA response in rats
Format: in vivo, Wistar male rats
Settings: Rattus norvegicus, ip, 30 minutes before the challenge with the antigen; read-out: 50% inhibiting dose (ED50) in the rat PCA
Experimental: [1] PCA response in rats:
Wistar male rats weighing 190-220 g were used. A diluted anti-dinitrophenyl-Ascalis (DNP-As) rat serum (each 0.1 ml) was intracutaneously injected into the back of the animals, by which the animals were passively sensitized. After 48 hours, Evans blue liquid (1.0 ml) containing DNP-As (20 mg, as a protein) was intravenously injected to the animals to induce PCA.
After 30 minutes, rats were killed, and the skin at the response region was peeled off, and the amount of color was measured spectrophotometrically. Test compounds were administered 30 minutes (in case of intraperitoneal injection) or one hour (in case of oral administration) before the challenge with the antigen.
The data of the references: disodium chromoglycate (SDCG) and Tranilast are also shown therein.

Row | SMILES | ED50 [mg/kg]
6 | O=C(O)c1cc(=O)c2c(OCC(O)COc3cccc4oc(C(=O)O)cc(=O)c34)cccc2o1 [DSCG, disodium chromoglycate, reference compound] | 3.3
7 | CC(C)Oc1ccccc1Nc1ncc(C(=O)O)c(=O)[nH]1 [Example 50, 1,6-dihydro-2-[b 2-(1-methylethoxy)anilino]-6-oxo-5-pyrimidinecarboxylic acid] | 13
8 | CC(C)COc1ccccc1Nc1ncc(C(=O)O)c(=O)[nH]1 [Example 52, 1,6-dihydro-2-[2-(2-methylpropoxy)anilino]-6-oxo-5-pyrimidinecarboxylic acid] | 4.7
9 | COc1ccc(/C=C/C(=O)Nc2ccccc2C(=O)O)cc1OC [Tranilast, reference compound] | 40
10 | CCCOc1ccccc1Nc1ncc(C(=O)O)c(=O)[nH]1 [Example 49, 1,6-dihydro-2-(2-propoxyanilino)-6-oxo-5-pyrimidinecarboxylic acid] | 11
11 | CCOc1ccccc1Nc1ncc(C(=O)O)c(=O)[nH]1 [Example 48, 1,6-dihydro-2-(2-ethoxyanilino)-6-oxo-5-pyrimidinecarboxylic acid] | 20.2
12 | CCCCOc1ccccc1Nc1ncc(C(=O)O)c(=O)[nH]1 [Example 51, 1,6-dihydro-2-(2-butoxyanilino)-6-oxo-5-pyrimidinecarboxylic acid] | 10.7

Same assay, conditions: Rattus norvegicus, po, 1 h; p.o., one hour before the challenge with the antigen; read-out: 50% inhibiting dose (ED50) in the rat PCA

Row | SMILES | ED50 [mg/kg]
13 | O=C(O)c1cc(=O)c2c(OCC(O)COc3cccc4oc(C(=O)O)cc(=O)c34)cccc2o1 [DSCG, disodium chromoglycate, reference compound] | > 200
14 | CC(C)Oc1ccccc1Nc1ncc(C(=O)O)c(=O)[nH]1 [Example 50, 1,6-dihydro-2-[b 2-(1-methylethoxy)anilino]-6-oxo-5-pyrimidinecarboxylic acid] | 75
15 | CC(C)COc1ccccc1Nc1ncc(C(=O)O)c(=O)[nH]1 [Example 52, 1,6-dihydro-2-[2-(2-methylpropoxy)anilino]-6-oxo-5-pyrimidinecarboxylic acid] | 39
16 | COc1ccc(/C=C/C(=O)Nc2ccccc2C(=O)O)cc1OC [Tranilast, reference compound] | 110
17 | CCCOc1ccccc1Nc1ncc(C(=O)O)c(=O)[nH]1 [Example 49, 1,6-dihydro-2-(2-propoxyanilino)-6-oxo-5-pyrimidinecarboxylic acid] | 22.2
18 | CCOc1ccccc1Nc1ncc(C(=O)O)c(=O)[nH]1 [Example 48, 1,6-dihydro-2-(2-ethoxyanilino)-6-oxo-5-pyrimidinecarboxylic acid] | 98
19 | CCCCOc1ccccc1Nc1ncc(C(=O)O)c(=O)[nH]1 [Example 51, 1,6-dihydro-2-(2-butoxyanilino)-6-oxo-5-pyrimidinecarboxylic acid] | 92

Test system: not listed separately
Assay: Toxicity test in mice (LD50, Litchfield-Wilcoxon method)
Settings: mouse, in vivo, po; mortality during 7 days; ddY male mice; read-out: 50% lethal dose (LD50)

Row | SMILES | LD50 at 168 h [mg/kg]
20 | CC(C)COc1ccccc1Nc1ncc(C(=O)O)c(=O)[nH]1 [Example 52, 1,6-dihydro-2-[2-(2-methylpropoxy)anilino]-6-oxo-5-pyrimidinecarboxylic acid] | > 3000
21 | COc1ccc(/C=C/C(=O)Nc2ccccc2C(=O)O)cc1OC [Tranilast, reference compound] | 780
22 | CCCOc1ccccc1Nc1ncc(C(=O)O)c(=O)[nH]1 [Example 49, 1,6-dihydro-2-(2-propoxyanilino)-6-oxo-5-pyrimidinecarboxylic acid] | > 3000
23 | CCOc1ccccc1Nc1ncc(C(=O)O)c(=O)[nH]1 [Example 48, 1,6-dihydro-2-(2-ethoxyanilino)-6-oxo-5-pyrimidinecarboxylic acid] | > 3000
24 | CCCCOc1ccccc1Nc1ncc(C(=O)O)c(=O)[nH]1 [Example 51, 1,6-dihydro-2-(2-butoxyanilino)-6-oxo-5-pyrimidinecarboxylic acid] | > 3000

Test system: SRS-A
Assay: Anti-SRS-A action, Magnus method using the isolated guinea pig ileum
Settings: crude SRS-A after 3 minutes, read-out: 50% inhibition concentration
Experimental: The anti-SRS-A activity of the compounds of the present invention was measured by Magnus method using the isolated guinea pig ileum. An extracted ileum of guinea pig was hung within a Magnus vessel which was maintained at 31±1° C. and then pre-treated with mepiramine to remove any effect by histamine. Test compound was administered in a dose of 3×10^-5 to 10^-3 M, and after 3 minutes, a previously prepared crude SRS-A was acted thereto, and then, the shrink rate (%) of the ileum was measured.

Row | SMILES | IC50 [µM]
25 | O=C(O)c1cc(=O)c2c(OCC(O)COc3cccc4oc(C(=O)O)cc(=O)c34)cccc2o1 [DSCG, disodium chromoglycate, reference compound] | > 1000
26 | CC(C)COc1ccccc1Nc1ncc(C(=O)O)c(=O)[nH]1 [Example 52, 1,6-dihydro-2-[2-(2-methylpropoxy)anilino]-6-oxo-5-pyrimidinecarboxylic acid] | 154
27 | COc1ccc(/C=C/C(=O)Nc2ccccc2C(=O)O)cc1OC [Tranilast, reference compound] | > 1000
28 | CCCOc1ccccc1Nc1ncc(C(=O)O)c(=O)[nH]1 [Example 49, 1,6-dihydro-2-(2-propoxyanilino)-6-oxo-5-pyrimidinecarboxylic acid] | 487

Same assay, conditions: test compd. 3 × 10^-4 M, crude SRS-A after 3 minutes

Row | SMILES | Inhibition rate [%]
29 | CC(C)COc1ccccc1Nc1ncc(C(=O)O)c(=O)[nH]1 [Example 52, 1,6-dihydro-2-[2-(2-methylpropoxy)anilino]-6-oxo-5-pyrimidinecarboxylic acid] | 87.9
30 | COc1ccc(/C=C/C(=O)Nc2ccccc2C(=O)O)cc1OC [Tranilast, reference compound] | 32.4
31 | CCCOc1ccccc1Nc1ncc(C(=O)O)c(=O)[nH]1 [Example 49, 1,6-dihydro-2-(2-propoxyanilino)-6-oxo-5-pyrimidinecarboxylic acid] | 17.9

Same assay, conditions: test compd. 3 × 10^-5 M, crude SRS-A after 3 minutes

Row | SMILES | Inhibition rate [%]
32 | CC(C)COc1ccccc1Nc1ncc(C(=O)O)c(=O)[nH]1 [Example 52, 1,6-dihydro-2-[2-(2-methylpropoxy)anilino]-6-oxo-5-pyrimidinecarboxylic acid] | 12.2

Same assay, conditions: test compd. 10^-3 M, crude SRS-A after 3 minutes

Row | SMILES | Inhibition rate [%]
33 | O=C(O)c1cc(=O)c2c(OCC(O)COc3cccc4oc(C(=O)O)cc(=O)c34)cccc2o1 [DSCG, disodium chromoglycate, reference compound] | 6
34 | COc1ccc(/C=C/C(=O)Nc2ccccc2C(=O)O)cc1OC [Tranilast, reference compound] | 48.2
35 | CCCOc1ccccc1Nc1ncc(C(=O)O)c(=O)[nH]1 [Example 49, 1,6-dihydro-2-(2-propoxyanilino)-6-oxo-5-pyrimidinecarboxylic acid] | 97.3

Same assay, conditions: test compd. 10^-4 M, crude SRS-A after 3 minutes

Row | SMILES | Inhibition rate [%]
36 | CC(C)COc1ccccc1Nc1ncc(C(=O)O)c(=O)[nH]1 [Example 52, 1,6-dihydro-2-[2-(2-methylpropoxy)anilino]-6-oxo-5-pyrimidinecarboxylic acid] | 26.2
37 | COc1ccc(/C=C/C(=O)Nc2ccccc2C(=O)O)cc1OC [Tranilast, reference compound] | 23.5
38 | CCCOc1ccccc1Nc1ncc(C(=O)O)c(=O)[nH]1 [Example 49, 1,6-dihydro-2-(2-propoxyanilino)-6-oxo-5-pyrimidinecarboxylic acid] | 8.1
